Source: patent US20110250294A1, “COMBINATIONS OF PRESERVATIVE COMPOSITIONS FOR OPHTHALMIC FORMULATIONS” (ALLERGAN, INC., priority 2010, published 2011)

System: S. aureus, P. aeruginosa, c. albicans, E. coli and/or A. niger
Assay: abbreviated preservative efficacy test against Ph Eur-A (EP-A) and Ph Eur-B (EP-B) criteria
Type: cell-based
Settings: 20 ppm BAK alone in ophthalmic solution
Description: Each of these formulations is tested by performing an abbreviated preservative efficacy test using test organisms S. aureus, P. aeruginosa, c. albicans, E. coli and/or A. niger. The formulations are tested against United States Preservative Efficacy Test (USP), European Efficacy Test-A (EP-A) and European Efficacy Test-B (EP-B) criteria as indicated. Ten (10) ml of each formulation is challenged with approximately 10^5 cfu/ml of test organism. At appropriate time intervals, the amount of bacterial and fungal survivors are assayed using Dey Engley broth (DE) as the neutralizer media. DE, along with filtration, is sufficient at neutralizing the antimicrobial agents in the compositions. One (1) ml of each sample is diluted into nine (9) ml of DE. One (1) ml of the 1:10 dilution is filtered through a 0.45 µm filter and washed with 100 ml of a saline/polysorbate 80 solution. After washing the filtrate a second time with 100 ml of saline/polysorbate 80 solution, the filtrate is placed onto a TSA plate for bacteria and SAB for fungi.

Substance: benzalkonium chloride [BAK]
- Ph Eur-B & A criteria (pass/fail): failed
